What is called IC50 is the point on the concentration scale where inhibition reaches its midpoint.

The values that follow come from ChEMBL document CHEMBL4673176, “Virulence attenuating combination therapy: a potential multi-target synergy approach to treat Pseudomonas aeruginosa infections in cystic fibrosis patients” (RSC Med Chem, 2020).

Assay [1] concerns the target T1, Transcriptional regulator MvfR (Pseudomonas aeruginosa PA14) (UniProt A0A072ZLE6).
T1 sequence (whole entry): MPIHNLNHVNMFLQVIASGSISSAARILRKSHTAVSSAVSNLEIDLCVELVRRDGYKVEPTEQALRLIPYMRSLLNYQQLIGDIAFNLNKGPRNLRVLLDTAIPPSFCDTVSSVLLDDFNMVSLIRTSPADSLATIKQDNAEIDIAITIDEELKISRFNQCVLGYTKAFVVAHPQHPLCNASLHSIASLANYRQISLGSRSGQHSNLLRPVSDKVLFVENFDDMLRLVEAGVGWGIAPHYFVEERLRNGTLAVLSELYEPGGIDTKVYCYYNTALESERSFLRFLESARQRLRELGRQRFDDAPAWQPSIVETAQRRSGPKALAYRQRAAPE
In words: Inhibition of PqsR in Pseudomonas aeruginosa PA14 assessed as potentiation of meropenem-mediated reduction in biofilm CFU at 10 uM incubated for 24 hrs relative to meropenem alone.

The target of assay [2] is T1, Transcriptional regulator MvfR (Pseudomonas aeruginosa PA14). The experiment in a line: Inhibition of PqsR in Pseudomonas aeruginosa PA14 assessed as potentiation of tobramycin-mediated reduction in biofilm CFU at 10 uM incubated for 24 hrs relative to tobramycin alone.
Assay [3] relates to Pseudomonas aeruginosa. In words: Antibacterial activity against Pseudomonas aeruginosa PAO1 infected in C57BL/6J mouse assessed as mouse survival at 100 uM administered intranasally at the time of infection and every 12 hrs and measured over 96 hrs. The settings on record: PAO1, inhaled or nasal. It is filed as functional.
Assay [4] is described as follows: Competitive inhibition of FAM-labelled PscF (69 to 85 residues) binding to Pseudomonas aeruginosa PscE/PscG by fluorescence polarization.
Assay [5] is described as follows: Inhibition of PqsR/PqsD in Pseudomonas aeruginosa PA14 assessed as reduction in biofilm formation by crystal violet assay.
The test system of assay [6] is Pseudomonas aeruginosa. The experiment in a line: Inhibition of quorum sensing system in Pseudomonas aeruginosa MCC-2080 assessed as reduction in biofilm formation incubated for 24 hrs by crystal violet staining based UV-Vis spectrophotometric method relative to control.

For the compound `O=C(CSc1nc2cc([N+](=O)[O-])ccc2[nH]1)Nc1ccc(Oc2ccccc2)cc1`, the fold change (FC) in assay [1] came to 178; in assay [2], 17.

As to `Cc1cccc2c3c(ccc12)C1=C(C(=O)C3=O)[C@@H](C)CO1` [DIHYDROTANSHINONE I], the survival at 100 µM in the assay with Pseudomonas aeruginosa [3] worked out at 90%. Further, the IC50 in assay [4] was 0.68 µM.

As to `CS(=O)(=O)c1nccc(-n2cnnn2)n1`, the half-maximal inhibitory concentration (IC50) in assay [5] amounted to 100 µM.

As for `O=c1c(O)c(-c2ccccc2)oc2cc(O)cc(O)c12`, in the assay with Pseudomonas aeruginosa [6], the IC85 turned out to be 100 µM.
